Experimental data: patent US11834450B2, “Compounds having ((3-nitrophenyl)sulfonyl)acetamide as BCL-2 inhibitors” (Eil Therapeutics, Inc., priority 2021, dated 2023)

Columns and labels:
MOLT-4 cells = assay: Cell viability assay MOLT-4 (CellTiter-Glo); format: cell-based; conditions: Homo sapiens, 72 h; MOLT-4 cells, 3 days, CellTiter-Glo; read-out: MOLT-4 (CC50 code)
Procedure, shortened: (§1)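 Cells were seeded at 2000/well (HEK293, in DMEM, pre-incubated a day) or 4000/well (other lines, in RPMI-1640). Serially diluted compound was added and plates incubated 3 days at 37 °C, with viability read by CellTiter-Glo luminescence.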

BCL-XL = biological target: T1, BCL-XL (Homo sapiens, UniProt Q07817); assay: BCL-XL TR-FRET Assay (primary PPI inhibition); format: binding; conditions: 60 min incubation; read-out: BCLxL (IC50 code, BCL-XL TR-FRET)
T1 construct: purchased BPS Bioscience #50223
Procedure, shortened: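 TR-FRET readout (ex 340 nm; em 620/665 nm; 60 μs delay, 500 μs integration) after a 60 min incubation. Mix: compound, 10.5 ng BCL-XL, BCL-XL peptide ligand at 1:80, plus anti-His Tb donor and dye acceptor each at 1:100.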

RS4-11 cells = assay: Cell viability assay RS4-11 (CellTiter-Glo); format: cell-based; conditions: Homo sapiens, 72 h; RS4-11 cells, 3 days, CellTiter-Glo; read-out: RS4-11 (CC50 code)
Procedure, shortened: as §1

[1] = system: caspase-3 and -7 activities in RS4-11 cells; assay: Cas-3/7 activation (Caspase-Glo 3/7) in RS4-11 cells; format: cell-based; conditions: Homo sapiens, 3.5 h at 37° C. and 30 min at r.t., read-out: Cas-3/7 (EC50 code)
Procedure: Assay Principle: The Caspase-Glo 3/7 Assay is homogeneous, luminescent assay that measures caspase-3 and -7 activities. The assay provides a luminogenic caspase-3/7 substrate, which contains the tetrapeptide sequence DEVD, in a reagent optimized for caspase activity.
Assay Procedure: Incubate RS4-11 cells with varying concentrations of test compounds for 3.5 h in a humidified incubator at 37° C. and 5% CO2 and 30 min at r.t. Add 15 μl Caspase-Glo reagent to each well and incubate the plate for 30 min at r.t. Read on ClarioStar Plus instrument.
Materials: Promega Caspase-Glo (Promega, #8212); Frozen RS4-11 cells; 384-well white plate (Corning, #3570).
Instrumentation: ClarioStar Plus; Biomek FX for liquid handling (Beckman Coulter).

BCL-2 = biological target: T2, BCL-2 (Homo sapiens, UniProt P10415); assay: BCL-2 TR-FRET Assay (primary PPI inhibition); format: binding; conditions: 60 min incubation; read-out: BCL2 (IC50 code, BCL-2 TR-FRET)
T2 construct: purchased BPS Bioscience #50222

[2] = Cell viability assay HEK293 (CellTiter-Glo); format: cell-based; conditions: human, HEK293 cells, read-out: HEK293 (CC50 code)
Procedure, shortened: as §1

T2 sequence (P10415 whole entry): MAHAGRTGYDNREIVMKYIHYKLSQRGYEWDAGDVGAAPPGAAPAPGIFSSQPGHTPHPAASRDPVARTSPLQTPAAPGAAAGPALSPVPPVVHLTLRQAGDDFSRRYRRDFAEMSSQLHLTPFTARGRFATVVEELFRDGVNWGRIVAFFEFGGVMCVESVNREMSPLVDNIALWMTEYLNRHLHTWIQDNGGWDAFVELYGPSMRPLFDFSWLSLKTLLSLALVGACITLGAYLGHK
T1 sequence (Q07817 whole entry): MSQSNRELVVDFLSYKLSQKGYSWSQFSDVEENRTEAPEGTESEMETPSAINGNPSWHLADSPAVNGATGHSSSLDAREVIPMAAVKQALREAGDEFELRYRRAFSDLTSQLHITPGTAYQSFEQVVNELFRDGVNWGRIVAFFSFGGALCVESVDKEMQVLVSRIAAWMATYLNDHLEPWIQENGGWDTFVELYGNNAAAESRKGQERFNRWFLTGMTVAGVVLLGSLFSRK

| SMILES | IC50 (BCL-XL) [µM] | EC50 [1] [µM] | IC50 (BCL-2) [µM] | CC50 (MOLT-4 cells) [µM] | CC50 (RS4-11 cells) [µM] | CC50 at 3 days [2] [µM] |
| --- | --- | --- | --- | --- | --- | --- |
| CC(C)C(=O)N1Cc2ccc(F)cc2C[C@H]1CN1CCN(c2ccc(C(=O)NS(=O)(=O)c3ccc(NCC4CCOCC4)c([N+](=O)[O-])c3)c(Oc3cnc4[nH]ccc4c3)c2)CC1 [Compound 45, 4-[4-[[(3S)-6-fluoro-2-(2-methylpropanoyl)-3,4-dihydro-1H-isoquinolin-3-yl]methyl]piperazin-1-yl]-N-[3-nitro-4-(tetrahydropyran-4-ylmethylamino)phenyl]sulfonyl-2-(1H-pyrrolo[2,3-b]pyridin-5-yloxy)benzamide] | > 4 | > 0.25 | > 0.05 | > 10 | > 0.2 | > 25 |
| Cc1cc(Cl)ccc1C1N(CC2CCN(c3ccc(C(=O)NS(=O)(=O)c4ccc(NCC5CCOCC5)c([N+](=O)[O-])c4)c(Oc4cnc5[nH]ccc5c4)c3)CC2)C(=O)C12CCCC2 (stereo not drawn) [Compound 3, 4-[4-[[1-(4-chloro-2-methyl-phenyl)-3-oxo-2-azaspiro[3.4]octan-2-yl]methyl]-1-piperidyl]-N-[3-nitro-4-(tetrahydropyran-4-ylmethylamino)phenyl]sulfonyl-2-(1H-pyrrolo[2,3-b]pyridin-5-yloxy)benzamide] | 2 to 4 | > 0.25 | 0.01 to 0.05 | 2 to 10 | > 0.2 | > 25 |
| CC(C)C(=O)N1Cc2cc(F)ccc2C[C@H]1CN1CCN(c2ccc(C(=O)NS(=O)(=O)c3ccc(NCC4CCOCC4)c([N+](=O)[O-])c3)c(Oc3cnc4[nH]ccc4c3)c2)CC1 [Compound 48, 4-[4-[[(3S)-7-fluoro-2-(2-methylpropanoyl)-3,4-dihydro-1H-isoquinolin-3-yl]methyl]piperazin-1-yl]-N-[3-nitro-4-(tetrahydropyran-4-ylmethylamino)phenyl]sulfonyl-2-(1H-pyrrolo[2,3-b]pyridin-5-yloxy)benzamide] | > 4 | > 0.25 | > 0.05 | > 10 | > 0.2 | > 25 |
| O=C(NS(=O)(=O)c1ccc(NCC2CCOCC2)c([N+](=O)[O-])c1)c1ccc(N2CCN(CC(c3ccccc3)c3ccc(F)c(F)c3)CC2)cc1Oc1cnc2[nH]ccc2c1 (stereo not drawn) [Compound 13, 4-[4-[2-(3,4-difluorophenyl)-2-phenyl-ethyl]piperazin-1-yl]-N-[3 nitro-4-(tetrahydropyran-4-ylmethylamino)phenyl]sulfonyl-2 (1H-pyrrolo[2,3-b]pyridin-5-yloxy)benzamide] | > 4 | > 0.25 | > 0.05 | < 2 | > 0.2 | ≤ 10 |
| O=C(NS(=O)(=O)c1ccc(NCC2CCOCC2)c([N+](=O)[O-])c1)c1ccc(N2CCN(C[C@@H]3Cc4cc(F)ccc4CN3C(=O)C3CC3)CC2)cc1Oc1cnc2[nH]ccc2c1 [Compound 49, 4-[4-[[(3S)-2-(cyclopropanecarbonyl)-6-fluoro-3,4-dihydro-1H-isoquinolin-3-yl]methyl]piperazin-1-yl]-N-[3-nitro-4-(tetrahydropyran-4-ylmethylamino)phenyl]sulfonyl-2-(1H-pyrrolo[2,3-b]pyridin-5-yloxy)benzamide] | > 4 | > 0.25 | 0.01 to 0.05 | 2 to 10 | > 0.2 | > 25 |
| O=C(NS(=O)(=O)c1ccc(NCC2CCOCC2)c([N+](=O)[O-])c1)c1ccc(N2CCN(CC(O)(c3ccccc3)c3ccc(F)c(F)c3)CC2)cc1Oc1cnc2[nH]ccc2c1 (stereo not drawn) [Compound 11, 4-[4-[2-(3,4-difluorophenyl)-2-hydroxy-2-phenyl-ethyl]piperazin-1-yl]-N-[3-nitro-4-(tetrahydropyran-4-ylmethylamino)phenyl]sulfonyl-2-(1H-pyrrolo[2,3-b]pyridin-5-yloxy)benzamide] | > 4 | > 0.25 | > 0.05 | 2 to 10 | > 0.2 | > 25 |
| CC(C)C(=O)N1Cc2cc(Cl)ccc2C[C@H]1CN1CCN(c2ccc(C(=O)NS(=O)(=O)c3ccc(NCC4CCOCC4)c([N+](=O)[O-])c3)c(Oc3cnc4[nH]ccc4c3)c2)CC1 [Compound 57, 4-[4-[[(3S)-7-chloro-2-(2-methylpropanoyl)-3,4-dihydro-1H-isoquinolin-3-yl]methyl]piperazin-1-yl]-N-[3-nitro-4-(tetrahydropyran-4-ylmethylamino)phenyl]sulfonyl-2-(1H-pyrrolo[2,3-b]pyridin-5-yloxy)benzamide] | > 4 | > 0.25 | > 0.05 | 2 to 10 | > 0.2 | 10 to 25 |
| CC(C)C(=O)N1Cc2ccc(Cl)cc2C[C@H]1CN1CCN(c2ccc(C(=O)NS(=O)(=O)c3ccc(NCC4CCOCC4)c([N+](=O)[O-])c3)c(Oc3cnc4[nH]ccc4c3)c2)CC1 [Compound 40, 4-[4-[[(3S)-6-chloro-2-(2-methylpropanoyl)-3,4-dihydro-1H-isoquinolin-3-yl]methyl]piperazin-1-yl]-N-[3-nitro-4-(tetrahydropyran-4-ylmethylamino)phenyl]sulfonyl-2-(1H-pyrrolo[2,3-b]pyridin-5-yloxy)benzamide] | > 4 | > 0.25 | > 0.05 | 2 to 10 | > 0.2 | 10 to 25 |

The next lines start with results.

| IC50 (BCL-XL) [µM] | EC50 [1] [µM] | IC50 (BCL-2) [µM] | SMILES | CC50 (MOLT-4 cells) [µM] | CC50 (RS4-11 cells) [µM] | CC50 at 3 days [2] [µM] |
| --- | --- | --- | --- | --- | --- | --- |
| ≤ 2 | > 0.25 | > 0.05 | CN1C(=O)CC[C@H](CN2CCN(c3ccc(C(=O)NS(=O)(=O)c4ccc(NCC5CCOCC5)c([N+](=O)[O-])c4)c(Oc4cnc5[nH]ccc5c4)c3)CC2)[C@H]1c1ccc(Cl)cc1 [Compound 72, 4-[4-[[(2S,3R)-2-(4-chlorophenyl)-1-methyl-6-oxo-3-piperidyl]methyl]piperazin-1-yl]-N-[3-nitro-4-(tetrahydropyran-4-ylmethylamino)phenyl]sulfonyl-2-(1H-pyrrolo[2,3-b]pyridin-5-yloxy)benzamide] | > 10 | > 0.2 | > 25 |
| ≤ 2 | > 0.25 | 0.01 to 0.05 | O=C(NS(=O)(=O)c1ccc(NCC2CCOCC2)c([N+](=O)[O-])c1)c1ccc(N2CCN(C[C@@H]3Cc4ccccc4CN3C(=O)C3CC3)CC2)cc1Oc1cnc2[nH]ccc2c1 [Compound 5, 4-[4-[[(3S)-2-(cyclopropanecarbonyl)-3,4-dihydro-1H-isoquinolin-3-yl]methyl]piperazin-1-yl]-N-[3-nitro-4-(tetrahydropyran-4-ylmethylamino)phenyl]sulfonyl-2-(1H-pyrrolo[2,3-b]pyridin-5-yloxy)benzamide] | 2 to 10 | > 0.2 | > 25 |
| ≤ 2 | > 0.25 | > 0.05 | COCCNc1ccc(S(=O)(=O)NC(=O)c2ccc(N3CCC(CN4CCCCC4c4ccc(Cl)cc4)CC3)cc2Oc2cnc3[nH]ccc3c2)cc1[N+](=O)[O-] (stereo not drawn) [Compound 61, 4-[4-[[2-(4-chlorophenyl)-1-piperidyl]methyl]-1-piperidyl]-N-[4-(2-methoxyethylamino)-3-nitro-phenyl]sulfonyl-2-(1H-pyrrolo[2,3-b]pyridin-5-yloxy)benzamide] | 2 to 10 | 0.1 to 0.2 | > 25 |
| ≤ 2 | > 0.25 | > 0.05 | CC(C)C(=O)N1Cc2ccccc2C[C@H]1CN1CCN(c2ccc(C(=O)NS(=O)(=O)c3ccc(NCC4CCOCC4)c([N+](=O)[O-])c3)c(Oc3cnc4[nH]ccc4c3)c2)CC1 [Compound 8, 4-[4-[[2-(2-methylpropanoyl)-3,4-dihydro-1H-isoquinolin-3-yl]methyl]piperazin-1-yl]-N-[3-nitro-4-(tetrahydropyran-4-ylmethylamino)phenyl]sulfonyl-2-(1H-pyrrolo[2,3-b]pyridin-5-yloxy)benzamide] | 2 to 10 | > 0.2 | > 25 |
| ≤ 2 | > 0.25 | > 0.05 | CC1=C(C)C[C@H](c2ccc(Cl)cc2)[C@@H](CN2CCN(c3ccc(C(=O)NS(=O)(=O)c4ccc(NCC5CCOCC5)c([N+](=O)[O-])c4)c(Oc4cnc5[nH]ccc5c4)c3)CC2)C1 [Compound 75, 4-[4-[[(1S,6S)-6-(4-chlorophenyl)-3,4-dimethyl-cyclohex-3-en-1-yl]methyl]piperazin-1-yl]-N-[3-nitro-4-(tetrahydropyran-4-ylmethylamino)phenyl]sulfonyl-2-(1H-pyrrolo[2,3-b]pyridin-5-yloxy)benzamide] | 2 to 10 | > 0.2 | > 25 |
